Values quoted from earlier work as cited in patent US6586615B1, “α-aminoboronic acids prepared by novel synthetic methods” (Bristol-Myers Squibb Company, priority 2001, dated 2003).

Molecular target: chymotrypsin (Bos taurus, UniProt P00766)
Details: inhibits chymotrypsin; background, Matteson J. Am. Chem. Soc. 103, 5241-5242 (1981)

Ki: 2100 nM
Structure (SMILES): CC(=O)NC(Cc1ccccc1)B(O)O (stereo not shown) [Ac-boroPhe-OH]
